In PubChem BioAssay (NCI):
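In this assay, cells in 96-well plates receive the compound at five concentrations for 48 hours. Endpoints are linearly interpolated between the surrounding concentrations. Here, GI50 denotes the concentration required for 50% inhibition of growth. TGI marks complete inhibition of growth.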 *1 amine or outer side, *2 acyl side, *3 side chain or, on linkers, in order; H or OH if unused. Where a SMILES comes first, the peptide text is derived from it. Bridges are numbered along the chain shown (N, C = ends). [ ]: non-standard residue; d: D form. ξ: configuration not given here. X35 = CC[C@H](C)[C@@H](N[*:1])[C@@H](O)CC(=O)O[C@H](C(=O)[C@H](C)C(=O)[*:2])C(C)C; NMeY = CN[C@@H](Cc1ccc(O)cc1)C(=O)O; dNMeL = CN[C@H](CC(C)C)C(=O)O; ξΔPro = O=C(O)C1C=CCN1

How the values were obtained:
Test in all cases: growth of human tumour cells (NCI), 48 h
[1] = tested on: K-562 leukemia
[2] = tested on: RXF 393 renal
[3] = tested on: A498 renal
[4] = tested on: UACC-257 melanoma
[5] = tested on: IGROV1 ovarian
[6] = tested on: CAKI-1 renal
[7] = tested on: SK-MEL-5 melanoma
[8] = tested on: KM12 colon
[9] = tested on: EKVX NSCLC
[10] = tested on: UACC-62 melanoma

| SMILES | TGI [1] [µM] | TGI [2] [µM] | TGI [3] [µM] | TGI [4] [µM] | TGI [5] [µM] | TGI [6] [µM] | TGI [7] [µM] | TGI [8] [µM] | TGI [9] [µM] | TGI [10] [µM] | GI50 [1] [µM] | GI50 [2] [µM] | GI50 [3] [µM] | GI50 [4] [µM] | GI50 [5] [µM] | GI50 [6] [µM] | GI50 [8] [µM] | GI50 [9] [µM] | GI50 [10] [µM] |
| --- | --- | --- | --- | --- | --- | --- | --- | --- | --- | --- | --- | --- | --- | --- | --- | --- | --- | --- | --- |
| Cn1ccc2c(c1=O)C(=O)OC2(C)C | > 100 | > 100 | > 100 | > 100 | > 100 | > 100 | > 100 | > 100 | > 100 | > 100 | – | – | – | – | – | – | – | – | – |
| COc1cc2oc(-c3ccc4c(c3)OCO4)c(OC)c(=O)c2c(O)c1OC | > 50 | > 50 | > 50 | > 50 | > 50 | > 50 | > 50 | > 50 | > 50 | > 50 | – | – | – | – | – | – | – | – | – |
| COC(=O)/C=C1\C(=O)C=C2[C@@H]3C[C@H]4C[C@H](CC[C@@]4(C)N21)C3(C)NC(C)=O (some centres undefined) | > 100 | > 39.9 | 38.9 | 52.5 | 40.7 | 26.3 | > 60 | 33.2 | 30.6 | 35 | – | – | – | – | – | – | – | – | – |
| NC(=S)N/N=C1\CCCC1C(O)(C(F)(F)Cl)C(F)(F)Cl (centres undefined) | > 10 | > 10 | > 10 | > 10 | > 10 | > 10 | 7.44 | > 10 | > 10 | > 10 | – | – | – | – | – | – | – | – | – |
| CNC(=O)N(CCC#N)CCCN(C(=O)N(C)C)c1ccccc1 | > 100 | > 100 | > 100 | > 100 | > 100 | > 100 | > 100 | > 100 | > 100 | > 100 | – | – | – | – | – | – | – | – | – |
| CC(C#N)N(CCc1ccccc1)C(=O)c1ccccc1 (centres undefined) | > 100 | > 100 | > 100 | > 100 | > 100 | > 100 | > 100 | > 100 | > 100 | > 100 | – | – | – | – | – | – | – | – | – |
| COC(=O)c1cc(C)ccc1/C=C1\Cc2c(C)cc(C)cc2C1=O | > 100 | 44.5 | 76.4 | > 30.1 | > 100 | > 89.1 | > 100 | > 100 | > 88.4 | 65.1 | – | – | – | – | – | – | – | – | – |
| CC1CN=C(c2ccc(-c3nc(-c4ccc(C5=NCC(C)N5)cc4)nc(N(C)C)n3)cc2)N1 (centres undefined) | 6 | 12.8 | 6.7 | 8.76 | 18 | 32 | 14 | 8.96 | 8.67 | 3.41 | – | – | – | – | – | – | – | – | – |
| Cc1ccc(/C=N\NC(=O)c2ccncc2)s1 | > 100 | > 100 | > 100 | > 100 | > 100 | > 100 | > 100 | > 100 | > 100 | > 100 | – | – | – | – | – | – | – | – | – |
| CC[C@H](C)[C@H]1NC(=O)[C@@H](NC(=O)[C@@H](CC(C)C)N(C)C(=O)C2C=CCN2)[C@@H](C)OC(=O)[C@H](Cc2ccc(OC)cc2)N(C)C(=O)[C@@H]2CCCN2C(=O)[C@H](CC(C)C)NC(=O)[C@@H](C)C(=O)[C@H](C(C)C)OC(=O)C[C@@H]1O (some centres undefined) (H-[ξΔPro][dNMeL]T[X35]LP[NMeY](Me); ester 3-C) | > 50 | 0.0285 | 0.0139 | 0.239 | 0.115 | 0.378 | 0.0756 | 0.447 | 0.168 | 0.00602 | – | – | – | – | – | – | – | – | – |
| O=P(O)(O)C=C=C1CCCCC1 | > 100 | > 100 | > 100 | > 100 | > 100 | > 100 | > 100 | > 100 | > 100 | > 100 | – | – | – | – | – | – | – | – | – |
| COC(=O)/C=c1/c2ccccc2n2c1c1ccccc1[n+]2C | > 100 | 17.4 | 14.6 | 8.08 | 20.9 | 70.9 | 8.12 | 9.47 | 7.79 | 27.5 | – | – | – | – | – | – | – | – | – |
| CC(=Nc1cc(Cl)cc(Cl)c1)c1ccncc1 | > 100 | > 100 | > 100 | > 100 | > 100 | > 100 | > 100 | > 100 | > 100 | > 100 | – | – | – | – | – | – | – | – | – |
| Cc1cc2nc(-c3c(N)ncc(C#N)c3-c3ccc(Cl)cc3)[nH]c2cc1C | > 100 | 13.7 | 59.2 | 82.6 | > 100 | > 100 | 33.4 | > 100 | 76.7 | 53.2 | 31.5 | 3.18 | 11.8 | 11.4 | 18.7 | 12.1 | 14.8 | 14.4 | 11 |
| CCN(CC)/[N+]([O-])=N/O | > 100 | > 100 | > 100 | > 100 | > 100 | > 100 | > 100 | > 100 | > 100 | > 100 | – | – | – | – | – | – | – | – | – |
